What was measured:
Test in all cases: Test C postemergence
Type in all cases: in vivo
[1] = tested on: canarygrass (Phalaris minor); conditions: for Plant response rating, Canarygrass: scale 0 to 100
How it was run: (§1)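 Rating scale 0–100: 0 means no effect, 100 complete control; taken visually 12 to 14 days post-treatment versus controls. Pre- and postemergence greenhouse applications, postemergence at 1- to 4-leaf stage, non-phytotoxic solvent with surfactant as carrier.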

[2] = tested on: windgrass (Apera spica-venti); conditions: for Plant response rating, Windgrass: scale 0 to 100
How it was run: as §1

[3] = tested on: downy brome (Bromus tectorum); conditions: for Plant response rating, Bromegrass, Downy: scale 0 to 100
How it was run: as §1

[4] = tested on: green foxtail (Setaria viridis); conditions: for Plant response rating, Foxtail, Green: scale 0 to 100
How it was run: as §1

[5] = tested on: blackgrass (Alopecurus myosuroides); conditions: for Plant response rating, Blackgrass: scale 0 to 100
How it was run: as §1

[6] = tested on: wheat (Triticum aestivum); conditions: for Plant response rating, Wheat: scale 0 to 100
How it was run: as §1

[7] = tested on: winter barley (Hordeum vulgare); conditions: for Barley plant response rating / plant injury at 62 g/ha / plant injury at 125 g/ha: scale 0 to 100 (0 no effect, 100 complete control); for Plant response rating, Barley: scale 0 to 100; for plant injury at 62 g/ha / plant injury at 125 g/ha: Hordeum vulgare, post-emergence, read-out: Barley plant response rating
How it was run: as §1

[8] = tested on: Italian ryegrass (Lolium multiflorum); conditions: for Plant response rating, Ryegrass, Italian: scale 0 to 100
How it was run: as §1

wild oat (Avena fatua) = conditions: for Plant response rating, Oat, Wild: scale 0 to 100
How it was run: as §1

[9] = 62 g ai/ha, scale 0 to 100 (0 no effect, 100 complete control)
[10] = 125 g ai/ha, scale 0 to 100 (0 no effect, 100 complete control)
[11] = Phalaris minor, post-emergence, 125 g ai/ha, scale 0 to 100 (0 no effect, 100 complete control), read-out: Canarygrass plant response rating
[12] = Apera spica-venti, post-emergence, 125 g ai/ha, scale 0 to 100 (0 no effect, 100 complete control), read-out: Windgrass plant response rating
[13] = Bromus tectorum, post-emergence, 125 g ai/ha, scale 0 to 100 (0 no effect, 100 complete control), read-out: Bromegrass, Downy plant response rating
[14] = Setaria viridis, post-emergence, 125 g ai/ha, scale 0 to 100 (0 no effect, 100 complete control), read-out: Foxtail, Green plant response rating
[15] = Alopecurus myosuroides, post-emergence, 125 g ai/ha, scale 0 to 100 (0 no effect, 100 complete control), read-out: Blackgrass plant response rating
[16] = Triticum aestivum, post-emergence, 125 g ai/ha, scale 0 to 100 (0 no effect, 100 complete control), read-out: Wheat plant response rating
[17] = Lolium multiflorum, post-emergence, 125 g ai/ha, scale 0 to 100 (0 no effect, 100 complete control), read-out: Ryegrass, Italian plant response rating
[18] = Avena fatua, post-emergence, 125 g ai/ha, scale 0 to 100 (0 no effect, 100 complete control), read-out: Oat, Wild plant response rating

CNN=Cc1nc(C2CC2)nc(N)c1Br [Compound 49]
Canarygrass plant response rating [1, 9]: 0 | Canarygrass plant response rating [1, 10]: 20 | Plant response rating, Canarygrass ([1]; 250 g ai/ha): 30 | Plant response rating, Canarygrass ([1]; 500 g ai/ha): 40 | Windgrass plant response rating [2, 9]: 40 | Windgrass plant response rating [2, 10]: 40 | Plant response rating, Windgrass ([2]; 250 g ai/ha): 60 | Plant response rating, Windgrass ([2]; 500 g ai/ha): 60 | Bromegrass, Downy plant response rating [3, 9]: 0 | Bromegrass, Downy plant response rating [3, 10]: 0 | Plant response rating, Bromegrass, Downy ([3]; 250 g ai/ha): 0 | Plant response rating, Bromegrass, Downy ([3]; 500 g ai/ha): 30 | Foxtail, Green plant response rating [4, 9]: 0 | Foxtail, Green plant response rating [4, 10]: 20 | Plant response rating, Foxtail, Green ([4]; 250 g ai/ha): 50 | Plant response rating, Foxtail, Green ([4]; 500 g ai/ha): 60 | Blackgrass plant response rating [5, 9]: 40 | Blackgrass plant response rating [5, 10]: 40 | Plant response rating, Blackgrass ([5]; 250 g ai/ha): 50 | Plant response rating, Blackgrass ([5]; 500 g ai/ha): 60 | Wheat plant response rating [6, 9]: 20 | Wheat plant response rating [6, 10]: 40 | Plant response rating, Wheat ([6]; 250 g ai/ha): 50 | Plant response rating, Wheat ([6]; 500 g ai/ha): 60 | Barley plant response rating ([7]; 62 g ai/ha): 0 | Barley plant response rating ([7]; 125 g ai/ha): 20 | Plant response rating, Barley ([7]; 250 g ai/ha): 30 | Plant response rating, Barley ([7]; 500 g ai/ha): 40 | Ryegrass, Italian plant response rating [8, 9]: 30 | Ryegrass, Italian plant response rating [8, 10]: 30 | Plant response rating, Ryegrass, Italian ([8]; 250 g ai/ha): 50 | Plant response rating, Ryegrass, Italian ([8]; 500 g ai/ha): 50 | Oat, Wild plant response rating (wild oat (Avena fatua); [9]): 30 | Oat, Wild plant response rating (wild oat (Avena fatua); [10]): 40 | Plant response rating, Oat, Wild (wild oat (Avena fatua); 250 g ai/ha): 40 | Plant response rating, Oat, Wild (wild oat (Avena fatua); 500 g ai/ha): 60

COC(=O)c1nc(C2CC2)nc(NO)c1Br [Compound 35]
Plant response rating, Canarygrass ([1]; 250 g ai/ha): 45 | Plant response rating, Canarygrass ([1]; 500 g ai/ha): 55 | pest or weed control at 62 g/ha ([1]; Phalaris minor, post-emergence, 62 g ai/ha, scale 0 to 100 (0 no effect, 100 complete control), read-out: Canarygrass plant response rating): 35% | pest or weed control at 125 g/ha [1, 11]: 45% | Plant response rating, Windgrass ([2]; 250 g ai/ha): 65 | Plant response rating, Windgrass ([2]; 500 g ai/ha): 65 | pest or weed control at 62 g/ha ([2]; Apera spica-venti, post-emergence, 62 g ai/ha, scale 0 to 100 (0 no effect, 100 complete control), read-out: Windgrass plant response rating): 40% | pest or weed control at 125 g/ha [2, 12]: 55% | Plant response rating, Bromegrass, Downy ([3]; 250 g ai/ha): 40 | Plant response rating, Bromegrass, Downy ([3]; 500 g ai/ha): 40 | pest or weed control at 62 g/ha ([3]; Bromus tectorum, post-emergence, 62 g ai/ha, scale 0 to 100 (0 no effect, 100 complete control), read-out: Bromegrass, Downy plant response rating): 30% | pest or weed control at 125 g/ha [3, 13]: 30% | Plant response rating, Foxtail, Green ([4]; 250 g ai/ha): 60 | Plant response rating, Foxtail, Green ([4]; 500 g ai/ha): 65 | pest or weed control at 62 g/ha ([4]; Setaria viridis, post-emergence, 62 g ai/ha, scale 0 to 100 (0 no effect, 100 complete control), read-out: Foxtail, Green plant response rating): 40% | pest or weed control at 125 g/ha [4, 14]: 50% | Plant response rating, Blackgrass ([5]; 250 g ai/ha): 60 | Plant response rating, Blackgrass ([5]; 500 g ai/ha): 65 | pest or weed control at 62 g/ha ([5]; Alopecurus myosuroides, post-emergence, 62 g ai/ha, scale 0 to 100 (0 no effect, 100 complete control), read-out: Blackgrass plant response rating): 50% | pest or weed control at 125 g/ha [5, 15]: 50% | Plant response rating, Wheat ([6]; 250 g ai/ha): 45 | Plant response rating, Wheat ([6]; 500 g ai/ha): 45 | plant injury at 62 g/ha ([6]; Triticum aestivum, post-emergence, 62 g ai/ha, scale 0 to 100 (0 no effect, 100 complete control), read-out: Wheat plant response rating): 35% | plant injury at 125 g/ha [6, 16]: 40% | Plant response rating, Barley ([7]; 250 g ai/ha): 40 | Plant response rating, Barley ([7]; 500 g ai/ha): 45 | plant injury at 62 g/ha ([7]; 62 g ai/ha): 20% | plant injury at 125 g/ha ([7]; 125 g ai/ha): 35% | Plant response rating, Ryegrass, Italian ([8]; 250 g ai/ha): 40 | Plant response rating, Ryegrass, Italian ([8]; 500 g ai/ha): 40 | pest or weed control at 62 g/ha ([8]; Lolium multiflorum, post-emergence, 62 g ai/ha, scale 0 to 100 (0 no effect, 100 complete control), read-out: Ryegrass, Italian plant response rating): 40% | pest or weed control at 125 g/ha [8, 17]: 40% | Plant response rating, Oat, Wild (wild oat (Avena fatua); 250 g ai/ha): 45 | Plant response rating, Oat, Wild (wild oat (Avena fatua); 500 g ai/ha): 55 | pest or weed control at 62 g/ha (wild oat (Avena fatua); Avena fatua, post-emergence, 62 g ai/ha, scale 0 to 100 (0 no effect, 100 complete control), read-out: Oat, Wild plant response rating): 30% | pest or weed control at 125 g/ha (wild oat (Avena fatua); [18]): 45%

CNc1nc(C2CC2)nc(C(=O)OC)c1Cl [Compound 79]
Plant response rating (scale of 0 to 100), Canarygrass ([1]; 16 g ai/ha): 0 | Plant response rating (scale of 0 to 100), Canarygrass ([1]; 31 g ai/ha): 20 | Plant response rating (scale of 0 to 100), Canarygrass ([1]; 62 g ai/ha): 25 | pest or weed control at 125 g/ha [1, 11]: 35% | Plant response rating (scale of 0 to 100), Windgrass ([2]; 16 g ai/ha): 40 | Plant response rating (scale of 0 to 100), Windgrass ([2]; 31 g ai/ha): 40 | Plant response rating (scale of 0 to 100), Windgrass ([2]; 62 g ai/ha): 45 | pest or weed control at 125 g/ha [2, 12]: 50% | Plant response rating (scale of 0 to 100), Bromegrass, Downy ([3]; 16 g ai/ha): 0 | Plant response rating (scale of 0 to 100), Bromegrass, Downy ([3]; 31 g ai/ha): 20 | Plant response rating (scale of 0 to 100), Bromegrass, Downy ([3]; 62 g ai/ha): 30 | pest or weed control at 125 g/ha [3, 13]: 35% | Plant response rating (scale of 0 to 100), Foxtail, Green ([4]; 16 g ai/ha): 20 | Plant response rating (scale of 0 to 100), Foxtail, Green ([4]; 31 g ai/ha): 20 | Plant response rating (scale of 0 to 100), Foxtail, Green ([4]; 62 g ai/ha): 30 | pest or weed control at 125 g/ha [4, 14]: 60% | Plant response rating (scale of 0 to 100), Blackgrass ([5]; 16 g ai/ha): 20 | Plant response rating (scale of 0 to 100), Blackgrass ([5]; 31 g ai/ha): 40 | Plant response rating (scale of 0 to 100), Blackgrass ([5]; 62 g ai/ha): 60 | pest or weed control at 125 g/ha [5, 15]: 60% | Plant response rating (scale of 0 to 100), Wheat ([6]; 16 g ai/ha): 0 | Plant response rating (scale of 0 to 100), Wheat ([6]; 31 g ai/ha): 20 | Plant response rating (scale of 0 to 100), Wheat ([6]; 62 g ai/ha): 30 | plant injury at 125 g/ha [6, 16]: 40% | Plant response rating (scale of 0 to 100), Barley ([7]; 16 g ai/ha): 0 | Plant response rating (scale of 0 to 100), Barley ([7]; 31 g ai/ha): 30 | plant injury at 62 g/ha ([7]; 62 g ai/ha): 35% | plant injury at 125 g/ha ([7]; 125 g ai/ha): 35% | Plant response rating (scale of 0 to 100), Ryegrass, Italian ([8]; 16 g ai/ha): 35 | Plant response rating (scale of 0 to 100), Ryegrass, Italian ([8]; 31 g ai/ha): 35 | Plant response rating (scale of 0 to 100), Ryegrass, Italian ([8]; 62 g ai/ha): 40 | pest or weed control at 125 g/ha [8, 17]: 45% | Plant response rating (scale of 0 to 100), Oat, Wild (wild oat (Avena fatua); 16 g ai/ha): 0 | Plant response rating (scale of 0 to 100), Oat, Wild (wild oat (Avena fatua); 31 g ai/ha): 25 | Plant response rating (scale of 0 to 100), Oat, Wild (wild oat (Avena fatua); 62 g ai/ha): 25 | pest or weed control at 125 g/ha (wild oat (Avena fatua); [18]): 45%
